Measurements: the METLIN SMRT retention time set (Domingo-Almenara et al. 2019)

Assay: gradient 5% acetonitrile 3 min, to 50% in 2 min, to 85% in 15 min, held 3 min, 100 µL/min
Details: column: Zorbax Extend-C18 2.1 x 50 mm; eluents: water / acetonitrile, 0.1% formic acid
How it was run: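 Mixtures of ~100 pure standards were chromatographed on a Zorbax Extend-C18 column (2.1 × 50 mm, 1.8 μm) at 100 μL/min using water and acetonitrile, each with 0.1% formic acid. Detection used a quadrupole time-of-flight mass spectrometer in positive and negative ionization mode, and data collection spanned 3 months. Retention time was obtained from adduct peaks picked computationally and each checked manually.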

SMILES | RP-LC retention time [s]
CCSc1nnc(NC(=O)CSc2nnnn2-c2ccccc2CC)s1 | 887
CCN(CC)c1ccc(NC(=O)CSc2ccc(N3CCCC(C(=O)NC4CC4)C3)nn2)c(C)c1 (centres undefined) | 529
CCOC(=O)c1csc(NC(=O)c2ccccc2Br)n1 | 780
Cc1nc(CC(=O)NCCc2c[nH]c3ccc(Cl)cc23)cs1 | 754
CCOc1cccc(-c2noc(-c3nnn(Cc4nc(-c5ccccc5OC)oc4C)c3C)n2)c1 | 1190
O=C(COc1ccc(C2=NN(C(=O)c3cccs3)C(c3ccccc3)C2)cc1)NCCO (centres undefined) | 695
O=C(c1cc(F)ccc1Cl)N1CCc2nc(-c3ccc(F)cc3)ncc2C1 | 1020
CCCN1C(=O)CCc2cc(NC(=O)COc3ccc(F)cc3)ccc21 | 888
COc1nn(C)cc1C(=O)Nc1nc(-c2ccc3c(c2)CCCC3)cs1 | 1090
CCOc1ccc2nc(Nc3ncc4c(n3)CC(c3ccc(F)cc3)CC4=O)nc(C)c2c1 (centres undefined) | 833
CC(=O)N1CCCN(C2=NS(=O)(=O)C(c3ccccc3)=C2C)CC1 | 665
Cn1cc(-c2cc3n(n2)CCC(=O)N3CC(=O)N2CCC(N3CCCCC3)CC2)c2ccccc21 | 623
O=C(NCCc1csc(C2CCN(C(=O)C3CCCC3)CC2)n1)C1CC1 | 690
CCC1Oc2ccc(S(=O)(=O)N3CCC(C(=O)Nc4ccc(C)c(C)c4)CC3)cc2NC1=O (centres undefined) | 930
O=C(NCc1nc(-c2ccc3c(c2)ncn3C2CCCC2)no1)c1ccco1 | 655
COc1cccc(C(O)CN2CCN(c3cccc(OC)c3)CC2)c1 (centres undefined) | 659
N[C@@H](Cc1ccc2oc3cc(=O)c4ccccc4c-3nc2c1)C(=O)O | 611
CC(=O)Nc1ccc2c(c1)CN(C(=O)c1c(F)cccc1Cl)C(C(=O)N(C)C)C2 (centres undefined) | 900
Cc1nc(-c2ccc3c(c2)n(CC(=O)NCCC2=CCCCC2)c(=O)n3C(C)C)no1 | 915
O=C(NC1CCN(C(=O)N2C[C@H]3C[C@H](C2)[C@H]2CCCC(=O)N2C3)CC1)c1ccc2ccccc2n1 | 714
O=c1ccc(-c2ccco2)nn1CCCNS(=O)(=O)/C=C/c1ccccc1 | 759
Cc1ccc(NC(=O)N2CCN(c3cc(C)nc(N4CCOCC4)n3)CC2)c(C)c1 | 666

SMILES | RP-LC retention time [s]
CCN1C(=O)c2c(C(=O)NCc3ccc(C)cc3)ncn2CC1(C)C(=O)NC1CCCC1 (centres undefined) | 783
O=C(Nc1ccc(C2=NCCN2)cc1)c1ccc(Cl)c(C(=O)Nc2ccc(C3=NCCN3)cc2)c1 | 618
CCOC(=O)C1CCN(c2cc3c(cc2NC(=O)NC(C)C)n(C)c(=O)n3C)CC1 | 713
COc1cccc(Cn2ccn3nc(-c4ccc5c(c4)OCO5)cc3c2=O)c1 | 970
O=C(NCCc1ccccc1)N1CCCC(Cn2cnc3cccnc32)C1 (centres undefined) | 635
CCN1C[C@]2(OC(=O)c3ccccc3NC(C)=O)CCC(OC)[C@@]34C5C[C@@H]6C(OC)C[C@](O)([C@@H](CC23)[C@@H]14)C5(O)[C@H]6OC (some centres undefined) | 760
COC(=O)c1ccc(NC(=O)Cn2c(C)nc3c(sc4nc(-c5ccccc5)ccc43)c2=O)cc1 | 1020
O=C(c1cccc(Cl)c1)N1CCC2(CC1)N=C(c1cccc(Br)c1)NO2 | 970
CCC1CCCCN1CCCNC(=O)C1CCCN(c2nccnc2Sc2ccccc2)C1 (centres undefined) | 714
Cc1sc(C)c(S(=O)(=O)Nc2cccc(Cl)c2)c1-c1cc(C(F)(F)F)on1 | 1190
O=C(Nc1ccc(Cl)cc1)N1CCCC1c1nc(-c2ccccc2)no1 (centres undefined) | 1040
O=C(NC1CCCC1)c1c2c(nc3ccccc13)CCC2 | 637
O=C(NCc1ccc(F)cc1)N1CCCC1c1nc(-c2cccc(F)c2)no1 (centres undefined) | 946
CCCn1c(=O)sc2cc(S(=O)(=O)N3CCC(C(=O)N4CCc5ccccc5C4)CC3)ccc21 | 989
Cc1ccccc1S(=O)(=O)N1CCC2(CC1)CC(OCc1ccccc1)CCO2 (centres undefined) | 1210
O=C(NCCc1c[nH]c2ccccc12)C1CCN(c2ncnc3c2oc2ccccc23)CC1 | 722
Cc1ccc(C(=O)NCc2ccc3c(c2)ncn3C)s1 | 604
CN1C(=O)c2cccnc2Sc2cc(NC(=O)C3CCCC3)ccc21 | 749
CCc1ccc(NC(=O)N2CCC3(CC2)NC(=O)c2ccccc2N3C)cc1 | 808
COC(=O)c1ccc(NC(=O)Cc2csc(Nc3ccc(S(C)(=O)=O)cc3)n2)cc1 | 698
CNC(=O)c1sc2nc(-c3ccc(OC)cc3)c(NC(C)(C)C)n2c1C | 737
O=C(C1CCCN(c2nc3ccccc3n3cccc23)C1)N1CCN(c2ccc(F)cc2)CC1 (centres undefined) | 805
